Structures can show the parent of a compound that is named as a salt. Where two headings read alike, the source gives them in different places.
Tests used:
[1] = molecular target: T1, SOS1-mediated exchange of KRAS-4B:GDP to KRAS-4B:GTP (Homo sapiens, UniProt Q07889); experiment: Bodipy-FL-GTP Association Assay; type: biochemical; settings: SOS1 GEF activity on KRAS-4B, 22° C.
T1 construct: SOS1 (Cytoskeleton Inc., Cat. CS-GE02); purchased Cytoskeleton Inc. CS-GE02 (SOS1); CSRS03 (KRAS4-B)
T1 sequence (Q07889 564-1049 limits assumed): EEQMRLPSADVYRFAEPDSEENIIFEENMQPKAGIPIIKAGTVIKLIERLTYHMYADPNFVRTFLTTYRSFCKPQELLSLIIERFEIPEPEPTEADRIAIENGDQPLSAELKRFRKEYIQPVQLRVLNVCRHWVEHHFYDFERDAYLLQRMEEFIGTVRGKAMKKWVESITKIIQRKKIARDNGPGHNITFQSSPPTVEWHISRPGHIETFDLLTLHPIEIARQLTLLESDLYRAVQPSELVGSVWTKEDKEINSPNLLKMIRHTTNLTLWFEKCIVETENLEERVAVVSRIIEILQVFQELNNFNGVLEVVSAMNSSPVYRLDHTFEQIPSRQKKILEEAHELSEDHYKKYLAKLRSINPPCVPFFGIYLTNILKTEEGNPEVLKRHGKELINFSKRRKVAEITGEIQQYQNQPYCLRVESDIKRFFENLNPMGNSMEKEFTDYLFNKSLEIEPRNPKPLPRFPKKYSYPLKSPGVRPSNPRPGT
Protocol: A low IC50 value for a given compound is indicative of high potency of said compound in inhibiting the guanine nucleotide exchange factor (GEF) activity of SOS1 on KRAS-4B in this assay setting. Reagents: BODIPY FL GTP (ThermoFisher Scientific, Cat. G12411); KRAS4-B (Cytoskeleton Inc., Cat. CSRS03); SOS1 (Cytoskeleton Inc., Cat. CS-GE02); 2× Assay Buffer: 40 mM Tris-HCl, pH 7.5; 100 mM NaCl; 20 mM MgCl2; 0.1 mg/mL BSA; 0.02% NP-40 Assay Procedure: Test compounds were dissolved in DMSO to create 20 mM master stocks. The stocks were diluted in a 3× dilution series in 100% DMSO to achieve 100× compound stocks. A 1 μl spot of each test compound stock was delivered to two adjacent wells of a 96-well assay plate prior to running the assay. Reaction Mix preparation: The following were mixed in order at room temperature to obtain the “Reaction Mix” (5.75 mL 2× Exchange Buffer; 3.22 mL MilliQ ddH2O; 3 μL 5 mM BODIPY FL GTP; 230 μL 50 μM KRAS-4B; 9.203 mL Total volume. Reaction initiation: 80 μL of Reaction Mix was pipetted into each well of a half-area black 96-well plate (Corning, Cat. 3686) containing either a 1 μL spot of DMSO or a 1 μL spot test compound at the concentrations listed above. 20 μL of 1 μM SOS1 was then added to each well to initiate the reaction. For the no GEF control wells this was replaced with 1× exchange buffer. Kinetic measurement: The reaction was monitored in a SpectraMax M2 Microplate Reader (Molecular Devices) under the following protocol: 5 second rapid circular mixing before first read; 61 readings, 30 seconds apart; Assay temperature: 22° C.; Excitation wavelength: 485 nm; Emission wavelength: 513 nm. Data Analysis: The V max values for the SOS1-mediated BODIPY FL GTP exchange curves in the presence of test compounds were normalized to the most dilute test sample columns or DMSO only control wells to give the % Activity for each concentration of test compound. Plots of % Activity vs. the Log10 of the compound concentration were fit by non-linear regression to a 4-parameter logistic model.

[2] = molecular target: T2, SOS1 catalytic domain (residues 564-1049) (Homo sapiens, UniProt Q07889); experiment: Binding affinity to SOS1 using Surface Plasmon Resonance (SPR); settings: avi-tagged SOS1 catalytic domain immobilized on sensor chip; read-out: SOS1 SPR Equilibrium Kd
T2 construct: SOS1 catalytic domain (residues 564-1049) immobilized on a sensor chip
T2 sequence (Q07889 564-1049): T1 sequence (Q07889 564-1049 limits assumed)
How it was run: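 Avi-tagged human SOS1 catalytic domain (564-1049) captured on streptavidin chip (~6000 RU); compounds flowed at 50 μL/min, 5 μM to 4.9 nM in ten 2-fold steps, in HEPES/NaCl/P20 buffer with 2% DMSO, double-referenced. Kd from end-of-association response plotted versus concentration.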

[3] = molecular target: T3, SOS1 nucleotide exchange of KRAS (catalytic domain of SOS1, residues 564-1049; wild-type KRAS) (Homo sapiens, UniProt Q07889); experiment: Mode of Action Assay: Inhibition of SOS1 Nucleotide Exchange Activity (TR-FRET); type: biochemical; settings: TR-FRET signal
T3 construct: tagless catalytic domain of SOS1 (residues 564-1049)
T3 sequence (Q07889 564-1049): T1 sequence (Q07889 564-1049 limits assumed)
How it was run: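 SOS1 catalytic domain (564-1049, 100 nM as diluted) preincubated 20 min with compounds (100 μM–1.7 nM, 11-point 3-fold) in HEPES pH 7.5 buffer with MgCl2. Then mixed with avi-KRAS(1-169), Streptavidin-Tb and EDA-GTP-DY-647P1 for 30 min at room temperature. TR-FRET normalized to DMSO and positive control, triplicates; IC50 by four-parameter logistic fit.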

[4] = system: cellular pERK in PC-9 cells (EGFR Ex19Del); experiment: Potency Assay: pERK; type: cell-based; settings: Homo sapiens, read-out: SOS1 pERK IC50
How it was run: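 Cells plated the day before and treated 1 h at 37 °C with 10-point 3-fold dilutions in duplicate, top 10 μM. pERK1/2 in lysates read by AlphaLISA SureFire Ultra. IC50 from 4-parameter sigmoidal fit of signal vs log concentration.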

[5] = PC-9 cells (EGFR Ex19Del), 1 hour incubation, AlphaLISA p-ERK1/2

SMILES | IC50 [1] [µM] | Kd [2] [µM] | IC50 [3] [µM] | IC50 [4, 5] [µM] | IC50 ([4]; PC-9, 1 h) [µM]
Cc1nc(N[C@H](C)c2cccc(C(F)(F)F)c2)c2sc(C3=CCNCC3)cc2n1 [Example 1, 2-methyl-6-(1,2,3,6-tetrahydropyridin-4-yl)-N-[(1R)-1-[3-(trifluoromethyl)phenyl]ethyl]thieno [3,2-d] pyrimidin-4-amine] | 1 to 5 |  |  |  | 
C[C@@H](Nc1ncnc2sc(C3=CCNCC3)cc12)c1cc(N)cc(C(F)(F)F)c1 [Example 3, N-[(1R)-1-[3-amino-5-(trifluoromethyl)phenyl]ethyl]-6-(1,2,3,6-tetrahydropyridin-4-yl)thieno[2,3-d]pyrimidin-4-amine] | 1 to 5 |  |  |  | 
COCC(=O)N1CC=C(c2cc3c(N[C@H](C)c4cc(N)cc(C(F)(F)F)c4)ncnc3s2)CC1 [Example 4, 1-[4-(4-{[(1R)-1-[3-amino-5-(trifluoromethyl)phenyl]ethyl]amino}thieno[2,3-d]pyrimidin-6-yl)-1,2,3,6-tetrahydropyridin-1-yl]-2-methoxyethan-1-one] | 1 to 5 |  |  |  | 
C[C@@H](Nc1ncnc2sc(C(=O)N3CCOCC3)cc12)c1cc(N)cc(C(F)(F)F)c1 [Example 65, N-[(1R)-1-[3-amino-5-(trifluoromethyl)phenyl]ethyl]-6-(morpholine-4-carbonyl)thieno[2,3-d]pyrimidin-4-amine] |  | ≤ 0.4 | < 1 | < 1 | 
C[C@@H](Nc1ncnn2cc(C(=O)N3CCN(C)CC3)cc12)c1cccc(C(F)F)c1F [Example 69] |  | ≤ 0.4 | < 1 | < 1 | 
C[C@@H](Nc1ncnn2cc(C(=O)N3CC4(CN(C)C4)C3)cc12)c1cccc(C(F)F)c1F [Example 70] |  | ≤ 0.4 | < 1 | < 1 | 
C[C@@H](Nc1ncnn2cc(C(=O)N3CC4(COC4)C3)cc12)c1cccc(C(F)F)c1F [Example 71] |  | ≤ 0.4 | < 1 | < 1 | 
C[C@@H](Nc1ncnn2cc(C(=O)N3CC4(C3)CN(C3COC3)C4)cc12)c1cccc(C(F)F)c1F [Example 72] |  | ≤ 0.4 | < 1 | < 1 | 
C[C@@H](Nc1nc(Cl)nc2[nH]c(C(=O)N3CCOCC3)nc12)c1cccc(C(F)(F)CO)c1 [Example 73, (R)-(2-chloro-6-((1-(3-(1,1-difluoro-2-hydroxyethyl)phenyl)ethyl)amino)-9H-purin-8-yl)(morpholino)methanone] |  | ≤ 0.4 | < 1 | > 1 | 
C[C@@H](Nc1nc(Cl)cn2nc(C(=O)N3CCOCC3)cc12)c1cc(N)cc(C(F)(F)F)c1 [Example 74] |  | > 0.4 | > 1 | < 1 | 
Cc1cn2nc(C(=O)N3CCN(C4COC4)CC3)cc2c(N[C@H](C)c2cc(N)cc(C(F)(F)F)c2)n1 [Example 76] |  | ≤ 0.4 | < 1 | < 1 | 
Cc1cn2nc(C(=O)N3CC4CC3CN4C)cc2c(N[C@H](C)c2cc(N)cc(C(F)(F)F)c2)n1 (stereo partly drawn) [Example 81] |  | ≤ 0.4 | < 1 | < 1 | 
Cc1cn2nc(C(=O)N3CCN4CCC4C3)cc2c(N[C@H](C)c2cc(N)cc(C(F)(F)F)c2)n1 (stereo partly drawn) [Example 82] |  | ≤ 0.4 | < 1 | < 1 | 
C[C@@H](Nc1ncnc2sc(C(=O)N3CCOCC3)cc12)c1cccc(C(F)(F)CO)c1 [Example 83, (R)-(4-((1-(3-(1,1-difluoro-2-hydroxyethyl)phenyl)ethyl)amino)thieno[2,3-d]pyrimidin-6-yl)(morpholino)methanone] |  | ≤ 0.4 | < 1 | < 1 | 
C[C@@H](Nc1ncnc2sc(C(=O)N3CCN(C4COC4)CC3)cc12)c1cccc(C(F)F)c1F [Example 84, (R)-(4-((1-(3-(difluoromethyl)-2-fluorophenyl)ethyl)amino)thieno[2,3-d]pyrimidin-6-yl)(4-(oxetan-3-yl)piperazin-1-yl)methanone] |  | ≤ 0.4 | < 1 | < 1 | 
C[C@@H](Nc1nccc2nc(C(=O)N3CCNCC3)cn12)c1cccc(C(F)F)c1F [Example 85, [5-[[(1R)-1-[3-(difluoromethyl)-2-fluoro-phenyl]ethyl]amino]imidazo[1,2-c]pyrimidin-2-yl]-piperazin-1-yl-methanone hydrochloride] |  | ≤ 0.4 | < 1 |  | < 1
C[C@@H](Nc1nccc2nc(C(=O)N3CCN(C4COC4)CC3)cn12)c1cccc(C(F)F)c1F [Example 87] |  | ≤ 0.4 | < 1 | > 1 | 
C[C@@H](Nc1nccc2nc(C(=O)N3CC4(C3)CN(C3COC3)C4)cn12)c1cccc(C(F)F)c1F [Example 88] |  | ≤ 0.4 | < 1 | < 1 | 
CC(=O)N1CC2(C1)CN(C(=O)c1cn3c(N[C@H](C)c4cccc(C(F)F)c4F)nccc3n1)C2 [Example 89] |  | ≤ 0.4 | < 1 | < 1 | 
C[C@@H](Nc1nccc2nc(C(=O)N3CC4(C3)CN(C3CC3)C4)cn12)c1cccc(C(F)F)c1F [Example 90] |  | ≤ 0.4 | < 1 | < 1 | 
C[C@@H](Nc1nccc2nc(C(=O)N3CC4(CN(CC(F)(F)F)C4)C3)cn12)c1cccc(C(F)F)c1F [Example 91] |  | ≤ 0.4 | < 1 | < 1 | 
C[C@@H](Nc1nc(Cl)nn2cc(C(=O)N3CC4(CN(C)C4)C3)cc12)c1cccc(C(F)(F)F)c1 [Example 97] |  | ≤ 0.4 | < 1 | < 1 | 
C[C@@H](Nc1nc(Cl)nn2cc(C(=O)N3CC4(CN(C)C4)C3)cc12)c1cccc(C(F)F)c1F [Example 99] |  | ≤ 0.4 | < 1 | < 1 | 
C[C@@H](Nc1nc(Cl)nn2cc(C(=O)N3CC4(COC4)C3)cc12)c1cccc(C(F)F)c1F [Example 100] |  | ≤ 0.4 | < 1 | < 1 | 
C[C@@H](Nc1nc(Cl)nc2c1nc(C(=O)N1CCOCC1)n2C)c1cccc(C(F)(F)CO)c1 [Example 103, (R)-(2-chloro-6-((1-(3-(1,1-difluoro-2-hydroxyethyl)phenyl)ethyl)amino)-9-methyl-9H-purin-8-yl)(morpholino)methanone] |  | > 0.4 | < 1 | < 1 | 
